Molecules are shown by their SMILES. Marks after values point to notes of the source that are not given here.

Series [1] has as its system DMBA-induced rat mammary tumor. The conditions noted are these: cited from earlier work.
For series [2] the following is noted: cited from earlier work.
Series [3] deals with serum retinol-binding protein, RBP (Homo sapiens, UniProt P02753). Conditions: cited from earlier work.
The subject of series [4] is DMBA-induced rat mammary tumor. As to the kind of experiment: DMBA-induced rat mammary tumor model, retinoid-containing diets. Type of series: in vivo. The method, then: Preliminary evaluation of the mammary tumor chemotherapeutic activity of 4-HBRCG (7) was conducted, and its toxicity profile was also assessed. As previously described,^7, 12 tumor-bearing female rats (treated ca. 50 days earlier with 7,12-dimethylbenz(a)anthracene [DMBA]) were fed the control or retinoid-containing diets (RA (2), 4-HPR (3) or 4-HBRCG (7)) at 2 mmole/kg diet for 22 days.
(§1) Animal Studies: Mammary tumors were induced by intragastric intubation of 50-day old female Sprague-Dawley rats (Harlan Industries, Indianapolis, Ind.) with a single dose of 15 mg DMBA in 1.0 ml of sesame oil per rat. The rats were then maintained on a powdered Teklad 22/5 rodent chow diet (W) 8640 (Harlan Industries, Indianapolis, Ind.), and allowed food and water ad libitum. Four months later, rats which had developed palpable tumors were randomly assigned to the experimental groups (4 rats/group). The retinoid-treated groups were fed diets supplemented with 2 mmol/kg diet of atRA, 4-HPR, or 4-HBRCG, respectively. The retinoids were added to the diet in a vehicle consisting of 25 ml of ethanol: tricaprylin (1:4 v/v) plus 2% (w/v) of α-tocopherol as previously described.^9 This vehicle was also added to the control diet. The additives were blended into the chow diets using a Hobart food mixer. The diets were fed in stainless steel feeders designed with food hoppers. The food was replaced weekly with freshly prepared diets. Food consumption was determined once weekly, and from that the average daily consumption/rat was estimated. These diets were continuously fed for 22 days. Animals were also weighted weekly and monitored for general health status and signs of possible toxicity due to treatment.
(§2) Baseline measurement of initial tumor sizes, numbers and rat body weights were determined immediately before commencement of treatments, and final measurements were recorded just prior to sacrifice of the animals. Animals were palpated for tumors twice weekly and tumor diameters were measured weekly by a micrometer caliper. Tumor volumes were calculated using the formula [V= 4/3 πr^3] where r is one-half the mean of the sum of the largest diameter and the axis at right angle to it. All tumors as well as lungs, liver, kidney and femur were excised at the end of the experiment for chemical and histopathological evaluation. Blood samples were also taken from each animal for determination of plasma retinol and triglyceride levels.

Series [5] in a line: Body weight change during retinoid feeding. Type of series: in vivo, rat. Conditions: relative to baseline body weight over 22 days; 2 mmol/kg diet. On the procedure:
as §1, §2

A short description of series [6]: Plasma retinol level (HPLC). Conditions: 2 mmol/kg diet. Type of series: in vivo, rat. The method, then: as §2
(§3) Plasma Retinoid Assay. To 500 μL of plasma was added 150 μL of ethanol containing 0.75 μg of internal standard (N-(4-chlorophenyl) retinamide). After mixing 30 sec., 500 μL of ethyl acetate was added followed by 1 min. of mixing and centrifugation for 5 minutes at 1000 rpm in an IEC CL centrifuge. The ethyl acetate layer was removed and syringe filtered through a 0.45 um filter. The ethyl acetate extraction was repeated two more times. The combined extracts were evaporated and the residue reconstituted in 100 μL of methanol. The methanol extract (20 μL) was analyzed by HPLC on a Beckman Instruments model 127 instrument equipped with a model 166 UV detector. Chromatography was done on a precolumn equipped 250×4.6 mm Bechman Ultrasphere ODS column with an 85% methanol/water mobile phase (both containing 10 mM ammonium acetate) flowing at 1 mL/min. Analysis for both internal standard and retinol was conducted at 350 nm and internal standard recoveries and retinol levels were determined by comparison with standard curves, with adjustment of the retinol level based on recovery. Recoveries of internal standard averaged ca. 78%. […] In the 4-HPR treated group, plasma levels of this retinoid were evaluated simultaneously in the same samples as above. In order to avoid interfering substances, plasma treatment retinoid levels for RA and 4-HBRCG were measured using the above system and a step gradient of 75% methanol for 15 min. followed by 85% methanol for 40 minutes.

Series [7] can be described thus: Terminal plasma drug levels (plasma retinoid assay, HPLC). Type of series: in vivo, rat. The conditions noted are these: day 22 of treatment; 2 mmol/kg diet; ± SEM. On the procedure:
as §3

Series [8] in a line: Plasma triglyceride measurement. The conditions noted are these: 2 mmol/kg diet, 22 days; FIG. 2A. Type of series: in vivo, rat. The method, then: Plasma Triglyceride Measurement. Bloods were drawn from anesthetized animals in the presence of EDTA as an anticoagulant, and the resulting plasma was used for the measurement of plasma “true” triglyceride levels using a kit from Sigma-Aldrich (Saint Louis, Mo.). Briefly, the total plasma triglyceride and glycerol concentrations were determined, and the glycerol component was subtracted from the total plasma triglyceride measurement to obtain the “true” serum triglyceride concentration.

The nature of series [9]: Femur bone mineral content. Type of series: in vivo, rat. Conditions: end of feeding study; FIG. 2B. The source says: Bone Mineral Content. The femur was disarticulated from the leg, and the adhering soft tissue was removed by dissection. Femurs were scanned using the Lunar PIXImus 2 system (Model X2608, General Electric using the LUNAR software version 1.45), and control measurements were made using the small animal quality control phantom. Femurs were scanned 5 times each with re-positioning at each measure. The average value of the bone mineral content (BMC) in grams for each animal is reported as one independent measure.

Another series deals with CYP26A1 mRNA. The series is described as follows: Induction of CYP26A1 mRNA in liver (Q-PCR). Type of series: in vivo, rat. The conditions noted are these: at sacrifice, retinoid-fed rats, 2 mmol/kg diet; FIG. 4.
Series [10] has as its system CYP26B1 mRNA. As to the kind of experiment: Induction of CYP26B1 mRNA in lung (Q-PCR). Type of series: in vivo, rat. The conditions noted are these: at sacrifice, retinoid-fed rats, 2 mmol/kg diet; data not shown.
The next series has as its target T1, RARβ (Homo sapiens, UniProt P10826).
T1 sequence (P10826 1-455): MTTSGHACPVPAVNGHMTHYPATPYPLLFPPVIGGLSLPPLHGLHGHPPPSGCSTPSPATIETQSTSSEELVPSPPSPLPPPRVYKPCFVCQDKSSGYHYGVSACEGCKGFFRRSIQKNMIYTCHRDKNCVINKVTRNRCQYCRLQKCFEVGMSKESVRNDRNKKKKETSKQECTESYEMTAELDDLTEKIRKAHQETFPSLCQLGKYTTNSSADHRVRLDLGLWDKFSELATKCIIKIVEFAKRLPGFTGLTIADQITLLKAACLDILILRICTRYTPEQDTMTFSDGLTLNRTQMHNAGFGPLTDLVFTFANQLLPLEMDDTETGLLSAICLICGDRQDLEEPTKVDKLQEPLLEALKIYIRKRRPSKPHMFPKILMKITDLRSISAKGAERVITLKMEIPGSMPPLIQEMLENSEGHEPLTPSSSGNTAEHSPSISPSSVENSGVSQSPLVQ
Conditions: cited from earlier work.

The next series concerns the target T2, RARγ (Homo sapiens, UniProt P13631).
T2 sequence (P13631 1-454): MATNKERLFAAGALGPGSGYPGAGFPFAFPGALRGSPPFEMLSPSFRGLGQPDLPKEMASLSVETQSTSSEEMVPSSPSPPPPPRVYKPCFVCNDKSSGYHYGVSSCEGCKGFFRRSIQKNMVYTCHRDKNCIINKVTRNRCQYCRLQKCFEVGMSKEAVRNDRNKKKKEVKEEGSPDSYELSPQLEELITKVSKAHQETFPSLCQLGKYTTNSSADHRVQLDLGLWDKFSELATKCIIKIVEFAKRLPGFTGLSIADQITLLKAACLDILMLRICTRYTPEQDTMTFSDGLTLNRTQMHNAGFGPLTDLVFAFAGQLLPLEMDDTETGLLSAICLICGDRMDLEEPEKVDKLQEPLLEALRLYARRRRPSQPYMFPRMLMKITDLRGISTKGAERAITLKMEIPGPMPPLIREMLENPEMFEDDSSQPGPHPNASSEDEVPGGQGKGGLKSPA
Conditions: cited from earlier work.

Series [11] relates to CYP26B1 mRNA. The conditions noted are these: vitamin A-deficient rats; background; cited from earlier work.
The conditions of series [12]: background statement; cited from earlier work.
For series [13] the following is noted: vitamin A-deficient rats; cited from earlier work.
Where [14] appears, read: number of individual tumors, 2 mmol/kg diet, 22 days.

Regarding `CC1=C(/C=C/C(C)=C/C=C/C(C)=C/C(=O)Cc2ccc(O)cc2)C(C)(C)CCC1` [4-HBR, 4-hydroxybenzyl retinone], the “Chemotherapeutic activity in DMBA-induced rat mammary tumor model” value in [1] is reported as “equiactive chemotherapeutics”. Moreover, the “Effect on blood retinol levels” value in [2] was “does not lower blood retinol levels”. For the same compound, the “Binding to RBP” value in series [3] was “equivalent binding to RBP”.
Consider `CC1=C(/C=C/C(C)=C/C=C/C(C)=C/C(=O)Nc2ccc(O)cc2)C(C)(C)CCC1` [4-HPR (3), N-(4-hydroxyphenyl) retinamide], for which, in series [4] (2 mmol/kg diet for 22 days), the “% Change in tumor volume from baseline” value is −33 ^d %. Besides, the Final tumor volume in series [4] (2 mmol/kg diet for 22 days, mean ± SEM) is reported as 0.08 ± 0.02 cm^3. In [4] (baseline before treatment, mean ± SEM), the Initial tumor volumes was found to be 0.12 ± 0.03 cm^3. In [4] (setting [14]), the “Complete regression (tumors that totally disappeared)” value turned out to be 1, the No effect is reported as 3 and the “Partial regression (tumors with 25-75% decrease in volume)” value was found to be 15. In addition, the New tumors in [4] (number of tumors, 2 mmol/kg diet, 22 days) turned out to be 0. In [5], the “% Weight change” value is listed as “+3%”. Further, in series [6], the “Effect on blood retinol” value is recorded as “the same amount of 4-HPR did”. Further, the Plasma retinol in series [6] (day 22 of treatment, mean ± SEM) is on record as 0.21 ± 0.05 ^e μg/ml. Besides, the “Plasma retinoid concentration (terminal plasma drug level)” value in series [7] came to 0.67 ± 0.07 µg/mL. For the same compound, the “Effect on serum triglyceride concentration” value in series [8] is given as “small but insignificant increase”. In addition, the “Effect on femur bone mineral content vs control” value in [9] is given as “showed no such effect”. For the same compound, the “Induction of CYP26A1 mRNA in liver” value with CYP26A1 mRNA came to 37 fold above control. In addition, the “Induction of CYP26B1 mRNA in lung” value in the series with CYP26B1 mRNA [10] stood at 20 fold above control. Moreover, the “Chemotherapeutic activity in DMBA-induced rat mammary tumor model” value in [1] is listed as “equiactive chemotherapeutics”. Besides, the “Times less potent than atRA in competing for [3H]atRA binding to RARβ” value at RARβ is about 3000 times. The “Times less able than atRA to compete for binding to RARγ” value at RARγ is 2500 times. For the same compound, the “Induction of CYP26B1 mRNA expression in lungs” value in the series with CYP26B1 mRNA [11] was “induces CYP26B1 mRNA expression in a RA-like manner”. Also, the “Teratogenicity relative to RA” value in series [12] is 100 times less teratogenic than RA. In series [3], the “Binding to RBP” value is recorded as “equivalent binding to RBP”. Further, the “Hydrolysis to liberate retinoic acid” value in series [13] was “is hydrolyzed to liberate retinoic acid”.

Source of the values: patent US9359322B2, “C-linked glucuronide of N-(4-hydroxybenzyl) retinone, analogs thereof, and methods of using the same to inhibit neoplastic cell growth” (Wisconsin Alumni Research Foundation, priority 2005, dated 2016).
